Reference: publication PMC8500670, “A selective WDR5 degrader inhibits acute myeloid leukemia in patient-derived mouse models” (Science translational medicine, 2021)
Like-named read-outs stand apart in the source and are kept apart here.

Key:
Assay in all cases: biochemical
[1] = molecular target: EphA2(h) (Homo sapiens, UniProt P29317); design: kinase selectivity panel, activity as per cent of control, single concentration in duplicate; conditions: read-out: % of control remaining
Description: (§1) We next assessed selectivity of MS67 against 22 protein methyltransferases (table S2) and a broad panel of common drug targets including 45 kinases (table S3) and 44 G protein–coupled receptors (GPCR), ion channels, and transporters (table S4). […] We subsequently determined that MS67 had moderate binding affinity (Ki = 1.0 ± 0.8 μM) to Sigma 2 receptor (fig. S10).

[2] = molecular target: PAK2(h) (Homo sapiens, UniProt Q13177); design: kinase selectivity panel, activity as per cent of control, single concentration in duplicate; conditions: read-out: % of control remaining
PAK2(h), sequence (Q13177 whole entry): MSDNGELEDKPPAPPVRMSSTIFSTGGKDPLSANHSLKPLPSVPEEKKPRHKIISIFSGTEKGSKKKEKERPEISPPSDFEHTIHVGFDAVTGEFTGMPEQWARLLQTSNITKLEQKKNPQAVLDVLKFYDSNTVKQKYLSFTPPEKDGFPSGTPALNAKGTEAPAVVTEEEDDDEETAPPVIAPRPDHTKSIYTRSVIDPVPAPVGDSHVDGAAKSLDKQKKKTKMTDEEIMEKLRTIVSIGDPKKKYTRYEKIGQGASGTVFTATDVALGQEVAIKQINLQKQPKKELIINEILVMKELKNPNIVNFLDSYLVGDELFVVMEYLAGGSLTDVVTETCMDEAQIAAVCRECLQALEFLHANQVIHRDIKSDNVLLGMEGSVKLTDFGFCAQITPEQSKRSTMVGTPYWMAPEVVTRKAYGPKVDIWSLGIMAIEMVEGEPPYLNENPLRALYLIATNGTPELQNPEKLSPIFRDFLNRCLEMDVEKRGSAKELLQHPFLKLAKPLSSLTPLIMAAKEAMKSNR
Description: as §1

[3] = molecular target: T1, SGK(h) (Homo sapiens, UniProt O00141); design: kinase selectivity panel, activity as per cent of control, single concentration in duplicate; conditions: read-out: % of control remaining
T1 construct: gene SGK1
Description: as §1

[4] = molecular target: PRMT6 (Homo sapiens, UniProt Q96LA8); design: protein methyltransferase selectivity panel, enzyme activity relative to DMSO controls, single concentration in duplicate; conditions: Substrate:=GST-GAR
PRMT6, sequence (Q96LA8 whole entry): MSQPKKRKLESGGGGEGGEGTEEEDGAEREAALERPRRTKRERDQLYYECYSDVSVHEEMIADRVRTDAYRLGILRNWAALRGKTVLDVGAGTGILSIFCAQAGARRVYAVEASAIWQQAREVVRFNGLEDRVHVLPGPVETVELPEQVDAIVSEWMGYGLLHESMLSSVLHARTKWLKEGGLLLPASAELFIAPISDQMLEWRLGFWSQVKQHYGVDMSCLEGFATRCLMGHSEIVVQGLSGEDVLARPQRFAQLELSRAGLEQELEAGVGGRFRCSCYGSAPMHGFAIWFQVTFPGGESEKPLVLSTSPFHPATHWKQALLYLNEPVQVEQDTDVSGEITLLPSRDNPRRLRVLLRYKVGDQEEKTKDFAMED
Description: as §1

[5] = molecular target: T2, PRMT7 (Homo sapiens, UniProt Q9NVM4); design: protein methyltransferase selectivity panel, enzyme activity relative to DMSO controls, single concentration in duplicate; conditions: Substrate:=GST-GAR
T2 sequence (Q9NVM4 1-692): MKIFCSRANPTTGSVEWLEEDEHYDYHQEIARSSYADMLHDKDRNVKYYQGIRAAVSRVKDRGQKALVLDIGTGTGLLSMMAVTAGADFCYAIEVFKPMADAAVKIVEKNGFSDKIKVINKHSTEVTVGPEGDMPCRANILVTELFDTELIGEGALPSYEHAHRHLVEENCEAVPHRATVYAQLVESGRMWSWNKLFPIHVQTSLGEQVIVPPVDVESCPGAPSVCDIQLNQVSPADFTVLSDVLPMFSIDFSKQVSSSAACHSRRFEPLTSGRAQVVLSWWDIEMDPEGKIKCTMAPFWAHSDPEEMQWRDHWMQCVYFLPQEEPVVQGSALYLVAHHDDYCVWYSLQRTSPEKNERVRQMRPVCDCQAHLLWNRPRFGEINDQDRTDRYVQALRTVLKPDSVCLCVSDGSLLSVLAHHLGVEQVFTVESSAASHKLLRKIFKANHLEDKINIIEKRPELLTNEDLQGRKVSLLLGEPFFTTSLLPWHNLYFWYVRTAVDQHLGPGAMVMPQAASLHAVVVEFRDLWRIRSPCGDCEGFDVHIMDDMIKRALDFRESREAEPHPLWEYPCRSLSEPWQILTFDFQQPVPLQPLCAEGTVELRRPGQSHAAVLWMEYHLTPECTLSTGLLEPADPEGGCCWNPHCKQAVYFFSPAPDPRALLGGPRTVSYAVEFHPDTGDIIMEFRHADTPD
Description: as §1

[6] = molecular target: EZH1 Complex (Homo sapiens, UniProt Q92800); design: Complex; protein methyltransferase selectivity panel, enzyme activity relative to DMSO controls, single concentration in duplicate; conditions: Substrate:=Core Histone
EZH1 Complex, sequence (Q92800 whole entry): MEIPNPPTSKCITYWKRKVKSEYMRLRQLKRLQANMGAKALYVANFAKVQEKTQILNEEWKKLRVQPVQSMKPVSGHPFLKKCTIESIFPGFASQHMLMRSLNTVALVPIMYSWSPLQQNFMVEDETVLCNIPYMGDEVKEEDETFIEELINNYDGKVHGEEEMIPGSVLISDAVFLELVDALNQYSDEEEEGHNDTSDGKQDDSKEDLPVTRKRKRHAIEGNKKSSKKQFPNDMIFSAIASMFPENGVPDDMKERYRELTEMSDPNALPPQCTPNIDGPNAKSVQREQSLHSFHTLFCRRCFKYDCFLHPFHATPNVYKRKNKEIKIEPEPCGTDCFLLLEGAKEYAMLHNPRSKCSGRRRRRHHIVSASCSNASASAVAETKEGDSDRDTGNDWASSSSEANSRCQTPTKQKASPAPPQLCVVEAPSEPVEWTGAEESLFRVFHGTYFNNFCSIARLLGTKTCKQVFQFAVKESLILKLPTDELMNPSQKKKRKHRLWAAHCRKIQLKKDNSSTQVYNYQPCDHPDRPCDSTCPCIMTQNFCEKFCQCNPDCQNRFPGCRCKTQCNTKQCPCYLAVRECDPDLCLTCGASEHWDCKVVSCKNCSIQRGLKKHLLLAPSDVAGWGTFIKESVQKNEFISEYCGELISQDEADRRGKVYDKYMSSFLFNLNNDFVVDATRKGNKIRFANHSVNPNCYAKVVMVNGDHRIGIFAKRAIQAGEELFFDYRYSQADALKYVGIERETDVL
EZH1 Complex, sequence (O75530 whole entry partner): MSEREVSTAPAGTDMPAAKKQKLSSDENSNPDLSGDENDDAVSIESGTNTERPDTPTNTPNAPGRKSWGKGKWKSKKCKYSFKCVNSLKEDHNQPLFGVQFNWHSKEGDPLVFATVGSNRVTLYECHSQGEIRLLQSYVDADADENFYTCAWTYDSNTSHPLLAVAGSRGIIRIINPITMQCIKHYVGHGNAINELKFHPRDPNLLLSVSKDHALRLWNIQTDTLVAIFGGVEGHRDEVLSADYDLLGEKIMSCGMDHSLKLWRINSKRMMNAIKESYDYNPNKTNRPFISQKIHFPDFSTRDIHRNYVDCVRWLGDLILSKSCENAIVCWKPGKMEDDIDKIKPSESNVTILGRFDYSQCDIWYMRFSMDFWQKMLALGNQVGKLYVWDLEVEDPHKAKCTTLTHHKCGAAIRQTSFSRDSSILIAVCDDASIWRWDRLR
EZH1 Complex, sequence (Q09028 whole entry partner): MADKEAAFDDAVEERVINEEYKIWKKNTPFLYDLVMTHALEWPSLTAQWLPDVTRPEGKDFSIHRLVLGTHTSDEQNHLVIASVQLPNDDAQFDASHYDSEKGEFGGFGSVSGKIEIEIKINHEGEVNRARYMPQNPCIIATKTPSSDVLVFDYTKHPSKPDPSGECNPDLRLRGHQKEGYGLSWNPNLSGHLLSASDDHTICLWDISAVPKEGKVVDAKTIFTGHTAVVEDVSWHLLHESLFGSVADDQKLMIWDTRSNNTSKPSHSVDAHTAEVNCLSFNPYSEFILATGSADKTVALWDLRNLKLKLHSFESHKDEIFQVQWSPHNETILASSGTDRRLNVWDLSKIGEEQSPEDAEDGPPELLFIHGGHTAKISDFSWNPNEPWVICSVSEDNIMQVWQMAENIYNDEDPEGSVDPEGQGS
EZH1 Complex, sequence (Q15022 whole entry partner): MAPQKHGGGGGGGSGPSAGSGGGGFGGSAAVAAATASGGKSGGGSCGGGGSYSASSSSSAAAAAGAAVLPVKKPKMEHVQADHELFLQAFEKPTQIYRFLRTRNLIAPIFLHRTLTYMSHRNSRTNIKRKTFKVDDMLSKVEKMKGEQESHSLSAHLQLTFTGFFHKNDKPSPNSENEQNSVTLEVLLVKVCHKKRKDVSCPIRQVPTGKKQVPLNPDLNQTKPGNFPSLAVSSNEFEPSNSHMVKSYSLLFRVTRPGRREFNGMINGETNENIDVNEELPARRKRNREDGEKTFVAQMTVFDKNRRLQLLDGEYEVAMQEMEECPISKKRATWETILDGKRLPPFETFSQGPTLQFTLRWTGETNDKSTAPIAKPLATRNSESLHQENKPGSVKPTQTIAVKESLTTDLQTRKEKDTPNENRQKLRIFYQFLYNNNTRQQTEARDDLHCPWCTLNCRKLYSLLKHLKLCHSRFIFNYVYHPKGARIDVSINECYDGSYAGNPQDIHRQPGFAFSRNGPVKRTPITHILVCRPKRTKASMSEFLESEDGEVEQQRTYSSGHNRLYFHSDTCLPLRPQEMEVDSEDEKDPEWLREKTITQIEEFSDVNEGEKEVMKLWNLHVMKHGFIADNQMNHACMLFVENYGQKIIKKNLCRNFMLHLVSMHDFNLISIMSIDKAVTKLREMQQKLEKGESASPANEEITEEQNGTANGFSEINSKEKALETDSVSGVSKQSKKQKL
EZH1 Complex, sequence (Q6ZN18 whole entry partner): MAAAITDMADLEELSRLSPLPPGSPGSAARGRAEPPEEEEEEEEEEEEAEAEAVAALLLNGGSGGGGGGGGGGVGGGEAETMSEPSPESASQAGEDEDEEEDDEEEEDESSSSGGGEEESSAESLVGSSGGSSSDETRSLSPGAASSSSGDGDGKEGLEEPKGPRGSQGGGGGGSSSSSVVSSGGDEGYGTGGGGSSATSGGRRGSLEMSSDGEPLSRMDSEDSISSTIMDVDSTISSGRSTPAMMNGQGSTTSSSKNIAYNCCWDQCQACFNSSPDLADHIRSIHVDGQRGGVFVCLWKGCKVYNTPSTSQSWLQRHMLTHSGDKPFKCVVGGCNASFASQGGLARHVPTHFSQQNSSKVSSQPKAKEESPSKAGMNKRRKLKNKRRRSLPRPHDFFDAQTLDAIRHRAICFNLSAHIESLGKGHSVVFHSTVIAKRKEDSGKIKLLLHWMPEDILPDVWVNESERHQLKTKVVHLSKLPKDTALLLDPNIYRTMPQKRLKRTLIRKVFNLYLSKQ
Description: as §1

[7] = molecular target: EZH2 Complex (Homo sapiens, UniProt Q15910); design: Complex; protein methyltransferase selectivity panel, enzyme activity relative to DMSO controls, single concentration in duplicate; conditions: Substrate:=Core Histone
EZH2 Complex, sequence (Q15910 whole entry): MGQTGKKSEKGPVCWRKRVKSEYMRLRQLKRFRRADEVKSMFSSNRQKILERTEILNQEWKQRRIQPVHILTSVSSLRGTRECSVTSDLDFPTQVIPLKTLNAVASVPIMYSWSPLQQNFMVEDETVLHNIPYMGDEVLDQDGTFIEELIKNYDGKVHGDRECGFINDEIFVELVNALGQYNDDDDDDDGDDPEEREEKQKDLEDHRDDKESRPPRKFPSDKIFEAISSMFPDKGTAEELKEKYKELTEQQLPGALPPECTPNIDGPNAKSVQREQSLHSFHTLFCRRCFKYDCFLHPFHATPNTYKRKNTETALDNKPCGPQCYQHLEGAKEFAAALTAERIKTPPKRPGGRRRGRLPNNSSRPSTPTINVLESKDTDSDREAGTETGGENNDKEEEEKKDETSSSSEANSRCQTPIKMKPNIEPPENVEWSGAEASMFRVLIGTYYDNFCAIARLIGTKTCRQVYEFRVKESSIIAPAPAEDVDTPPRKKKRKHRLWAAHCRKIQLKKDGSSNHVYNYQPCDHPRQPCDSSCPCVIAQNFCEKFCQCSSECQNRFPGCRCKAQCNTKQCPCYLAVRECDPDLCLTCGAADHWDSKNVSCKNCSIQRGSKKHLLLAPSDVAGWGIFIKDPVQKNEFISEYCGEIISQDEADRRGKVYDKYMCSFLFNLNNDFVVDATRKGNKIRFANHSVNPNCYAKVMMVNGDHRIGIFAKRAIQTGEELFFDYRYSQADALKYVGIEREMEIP
EZH2 Complex, sequence (O75530 whole entry partner): as the sequence (O75530 whole entry partner) above
EZH2 Complex, sequence (Q09028 whole entry partner): as the sequence (Q09028 whole entry partner) above
EZH2 Complex, sequence (Q15022 whole entry partner): as the sequence (Q15022 whole entry partner) above
EZH2 Complex, sequence (Q6ZN18 whole entry partner): as the sequence (Q6ZN18 whole entry partner) above
Description: as §1

[8] = molecular target: PRMT5/MEP50 Complex (Homo sapiens, UniProt O14744); design: Complex; protein methyltransferase selectivity panel, enzyme activity relative to DMSO controls, single concentration in duplicate; conditions: Substrate:=Histone H2A
Description: as §1

[9] = read-out: Enzyme % Activity (relative to DMSO controls) / MS67 / 10 / Data 1:
[10] = read-out: Enzyme % Activity (relative to DMSO controls) / MS67 / 10 / Data 2:

## Cc1ncsc1-c1ccc([C@H](C)NC(=O)[C@@H]2C[C@@H](O)CN2C(=O)[C@@H](NC(=O)CNC(=O)c2ccc(F)c(-c3ccc(N4C[C@@H](C)N(C)[C@@H](C)C4)c(NC(=O)c4c[nH]c(=O)cc4C(F)(F)F)c3)c2)C(C)(C)C)cc1 [MS67]
[1]
  remaining activity at 1 µM: 80%
[2]
  remaining activity at 1 µM: 89%
[3]
  remaining activity at 1 µM: 113%
[4]; [9]
  remaining activity at 10 µM: 97.1%
[4]; [10]
  remaining activity at 10 µM: 95.1%
[5]; [9]
  remaining activity at 10 µM: 100%
[5]; [10]
  remaining activity at 10 µM: 103%
[6]; [9]
  remaining activity at 10 µM: 97.1%
[6]; [10]
  remaining activity at 10 µM: 103%
[7]; [9]
  remaining activity at 10 µM: 106%
[7]; [10]
  remaining activity at 10 µM: 101%
[8]; [9]
  remaining activity at 10 µM: 96.2%
[8]; [10]
  remaining activity at 10 µM: 97.3%
